For 20 compounds, IC50 results are on record in US12240862B2, “Inhibitors of peptidylarginine deiminases” (Gilead Sciences, Inc., priority 2020, dated 2025).

By IC50 is commonly meant the concentration at which inhibition is half-maximal.

The structures appear in SMILES notation.

T1 sequence (Q9UM07 2-663): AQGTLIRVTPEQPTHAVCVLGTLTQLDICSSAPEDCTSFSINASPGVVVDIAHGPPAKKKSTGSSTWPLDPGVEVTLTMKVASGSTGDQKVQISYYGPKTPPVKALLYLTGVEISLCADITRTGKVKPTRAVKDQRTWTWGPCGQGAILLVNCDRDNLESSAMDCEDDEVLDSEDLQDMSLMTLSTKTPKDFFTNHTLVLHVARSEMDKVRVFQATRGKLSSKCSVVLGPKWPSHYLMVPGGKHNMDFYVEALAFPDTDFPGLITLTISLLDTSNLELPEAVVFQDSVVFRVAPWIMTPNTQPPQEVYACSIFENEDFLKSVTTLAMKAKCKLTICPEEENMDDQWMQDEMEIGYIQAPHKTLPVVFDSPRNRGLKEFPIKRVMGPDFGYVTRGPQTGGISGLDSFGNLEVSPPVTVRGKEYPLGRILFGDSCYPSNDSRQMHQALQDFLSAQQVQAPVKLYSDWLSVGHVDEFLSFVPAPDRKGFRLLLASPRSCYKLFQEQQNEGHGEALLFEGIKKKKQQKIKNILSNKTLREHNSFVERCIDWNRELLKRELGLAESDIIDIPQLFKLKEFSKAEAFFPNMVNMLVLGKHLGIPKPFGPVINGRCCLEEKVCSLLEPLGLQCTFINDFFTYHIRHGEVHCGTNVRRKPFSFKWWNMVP

This assay addresses T1, human PAD4 (Homo sapiens, UniProt Q9UM07).
T1 construct: human PAD4 (NM_012387), A2P663, was PCR amplified; His-SUMO (N, cleaved yes); made in house; host or cells: E. coli BL21(DE3)
Nature of the assay: In vitro PAD4 BAEE biochemical assay. The note with it: human PAD4, BAEE substrate; 5 nM PAD4, 2 mM calcium chloride, 3 mM BAEE; geometric mean of multiple experiments. The gist of the method: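 Tag-free recombinant hPAD4 (5 nM), 2 mM CaCl2, 3 mM BAEE, 50 mM MOPS pH 7.6, 2 mM DTT; 30 min compound preincubation, 2 h reaction, all 25 °C. EDTA quench; ammonia read via o-phthalaldehyde amine coupling, 1 h.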
Regarding `COc1cc(C(=O)N[C@@H]2CCCCNC2)cc2nc(-c3cc4ccc(N(C(F)F)S(C)(=O)=O)nc4n3CC3CC3)c(C)n12` [Example 316, ~{N}-[(3~{R})-azepan-3-yl]-2-[1-(cyclopropylmethyl)-6-[difluoromethyl (methylsulfonyl)amino]pyrrolo[2,3-b]pyridin-2-yl]-5-methoxy-3-methylimidazo[1,2-a]pyridine-7-carboxamide], the IC50 is 0.306 µM. Next, `CCc1ccc2cc(-c3nc4cc(C(=O)N5CC6(N)CCC5CC6)cc(OC)n4c3C)n(CC3CC3)c2n1` [Example 593, (4-amino-2-azabicyclo[2.2.2]octan-2-yl)-[2-[1-(cyclopropylmethyl)-6-ethylpyrrolo[2,3-b]pyridin-2-yl]-5-methoxy-3-methylimidazo[1,2-a]pyridin-7-yl]methanone]: 1.9 µM; `COc1cc(C(=O)N2[C@H]3CC[C@@H]2[C@H](N)C3)cc2nc(-c3cc4ccc([C@@H](C)N5CCCCC5=O)nc4n3CC3CC3)c(C)n12` [Example 271]: 0.0356 µM; `COc1cc(C(=O)N2[C@H]3CC[C@@H]2[C@H](N)C3)cc2nc(-c3cc4ccc(N5c6ccccc6CS5(=O)=O)nc4n3CC3CC3)c(C)n12` [Example 467, [(1~{R},2~{R},4~{S})-2-amino-7-azabicyclo [2.2.1]heptan-7-yl]-[2-[1-(cyclopropylmethyl)-6-(2,2-dioxo-3~{H}-2,1-benzothiazol-1-yl)pyrrolo [2,3-b]pyridin-2-yl]-5-methoxy-3-methylimidazo [1,2-a]pyridin-7-yl] methanone]: 0.361 µM. Turning to `CCc1ccc2cc(-c3nc4cc(C(=O)N5[C@H]6CC[C@@H]5[C@H](N)C6)cc(OC)n4c3C)n(-c3cnc(C)s3)c2n1` [Example 511, [(1~{R},2~{R},4~{S})-2-amino-7-azabicyclo [2.2.1]heptan-7-yl]-[2-[6-ethyl-1-(2-methyl-1,3-thiazol-5-yl)pyrrolo [2,3-b]pyridin-2-yl]-5-methoxy-3-methylimidazo [1,2-a]pyridin-7-yl] methanone], the IC50 stood at 4.68 µM. With `COc1cc(C(=O)N2[C@H]3CC[C@@H]2[C@H](N)C3)cc2nc(-c3cc4ccc([C@@H](C)NC(=O)NCc5ccccc5)nc4n3CC3CC3)c(C)n12` [Example 233, 1-[(1~{R})-1-[2-[7-[(1~{R},2~{R},4~{S})-2-amino-7-azabicyclo[2.2.1]heptane-7-carbonyl]-5-methoxy-3-methylimidazo [1,2-a]pyridin-2-yl]-1-(cyclopropylmethyl)pyrrolo [2,3-b]pyridin-6-yl]ethyl]-3-benzylurea] the figure was 0.103 µM; with `COc1cc(C(=O)N2C[C@@H]3CCC[C@H]2[C@H]3N)cc2nc(-c3cc4ccc(N(C(F)F)S(C)(=O)=O)nc4n3CC3CC3)c(C)n12` [Example 329, N-[2-[7-[(1S,5S,8S)-8-amino-6-azabicyclo[3.2.1]octane-6-carbonyl]-5-methoxy-3-methyl-imidazo[1,2-a]pyridin-2-yl]-1-(cyclopropylmethyl)pyrrolo [2,3-b]pyridin-6-yl]-N-(difluoromethyl) methanesulfonamide], 5.66 µM; with `COc1cc(C(=O)N2[C@H]3CC[C@@H]2[C@H](N)C3)cc2nc(-c3cc4ccc([C@@H](C)NC(=O)C(F)(F)F)nc4n3CC3CC3)c(C)n12` [Example 162, ~{N}-[(1~{R})-1-[2-[7-[(1~{R},2~{R},4~{S})-2-amino-7-azabicyclo[2.2.1]heptane-7-carbonyl]-5-methoxy-3-methylimidazo [1,2-a]pyridin-2-yl]-1-(cyclopropylmethyl)pyrrolo [2,3-b]pyridin-6-yl]ethyl]-2,2,2-trifluoroacetamide], 0.0991 µM. Next, `COc1cc(C(=O)N2CC[C@@H](NC(C)=O)[C@@H](N)C2)cc2nc(-c3cc4ccc(N(C(F)F)S(C)(=O)=O)nc4n3CC3CC3)c(C)n12` [Example 360, ~{N}-[(3~{S},4~{R})-3-amino-1-[2-[1-(cyclopropylmethyl)-6-[difluoromethyl (methylsulfonyl)amino]pyrrolo[2,3-b]pyridin-2-yl]-5-methoxy-3-methylimidazo[1,2-a]pyridine-7-carbonyl]piperidin-4-yl]acetamide]: 0.725 µM. Next, `COc1cc(C(=O)N2CC[C@H]3OCCN[C@H]3C2)cc2nc(-c3cc4ccc(N(C(F)F)S(C)(=O)=O)nc4n3CC3CC3)c(C3CC3)n12` [Example 384, ~{N}-[2-[7-[(4~{a}~{S},8~{a}~{R})-2,3,4,4~{a},5,7,8,8~{a}-octahydropyrido[4,3-b][1,4]oxazine-6-carbonyl]-3-cyclopropyl-5-methoxyimidazo[1,2-a]pyridin-2-yl]-1-(cyclopropylmethyl)pyrrolo [2,3-b]pyridin-6-yl]-~{N}-(difluoromethyl) methanesulfonamide]: 0.888 µM. Consider `COc1cc(C(=O)N2CCC3(CCCN3)CC2)cc2nc(-c3cc4ccc(N(C(F)F)S(C)(=O)=O)nc4n3CC3CC3)c(C)n12` [Example 342, ~{N}-[1-(cyclopropylmethyl)-2-[7-(1,8-diazaspiro[4.5]decane-8-carbonyl)-5-methoxy-3-methylimidazo[1,2-a]pyridin-2-yl]pyrrolo[2,3-b]pyridin-6-yl]-~{N}-(difluoromethyl) methanesulfonamide], for which the half-inhibitory concentration (IC50) worked out at 14.1 µM.

For the compound `COc1cc(C(=O)N2CCC[C@@H](N)C2)cc2nc(-c3cc4ccc([C@@H](C)NC(=O)N5CC(O)C5)nc4n3CC3CC3)c(C3CC3)n12` [Example 146, ~{N}-[(1~{R})-1-[2-[7-[(3~{R})-3-aminopiperidine-1-carbonyl]-3-cyclopropyl-5-methoxyimidazo [1,2-a]pyridin-2-yl]-1-(cyclopropylmethyl)pyrrolo [2,3-b]pyridin-6-yl]ethyl]-3-hydroxyazetidine-1-carboxamide], the half-inhibitory concentration (IC50) was found to be 0.16 µM.

Turning to `CCc1ccc2cc(-c3nc4cc(C(=O)N5[C@H]6CC[C@@H]5[C@H](N)C6)cc(OC)n4c3C)n(CC3CC3)c2n1` [Example 584, [(1~{R},2~{R},4~{S})-2-amino-7-azabicyclo [2.2.1]heptan-7-yl]-[2-[1-(cyclopropylmethyl)-6-ethylpyrrolo[2,3-b]pyridin-2-yl]-5-methoxy-3-methylimidazo[1,2-a]pyridin-7-yl]methanone], the concentration for half-maximal inhibition (IC50) amounted to 0.0845 µM.

Regarding `C=CCC(=O)N[C@H](C)c1ccc2cc(-c3nc4cc(C(=O)N5[C@H]6CC[C@@H]5[C@H](N)C6)cc(OC)n4c3C)n(CC3CC3)c2n1` [Example 64, ~{N}-[(1~{R})-1-[2-[7-[(1~{R},2~{R},4~{S})-2-amino-7-azabicyclo[2.2.1]heptane-7-carbonyl]-5-methoxy-3-methylimidazo [1,2-a]pyridin-2-yl]-1-(cyclopropylmethyl)pyrrolo[2,3-b]pyridin-6-yl]ethyl]but-3-enamide], the concentration for half-maximal inhibition (IC50) came out at 0.0385 µM. Next, `COc1cc(C(=O)N2[C@H]3CC[C@@H]2[C@H](N)C3)cc2nc(-c3cc4ccc([C@@H](C)NC(=O)N5CC[C@H](CCO)C5)nc4n3CC3CC3)c(C)n12` [Example 215, (3~{R})-~{N}-[(1~{R})-1-[2-[7-[(1~{R},2~{R}, 4~{S})-2-amino-7-azabicyclo[2.2.1]heptane-7-carbonyl]-5-methoxy-3-methylimidazo [1,2-a]pyridin-2-yl]-1-(cyclopropylmethyl)pyrrolo [2,3-b]pyridin-6-yl]ethyl]-3-(2-hydroxyethyl)pyrrolidine-1-carboxamide]: 0.0442 µM.

In the case of `COc1cc(C(=O)N2[C@H]3CC[C@@H]2[C@H](N)C3)cc2nc(-c3cc4ccc([C@@H](C)NC(=O)N5CC6C(C5)C6(F)F)nc4n3CC3CC3)c(C)n12` (some centres unmarked) [Example 209, ~{N}-[(1~{R})-1-[2-[7-[(1~{R},2~{R},4~{S})-2-amino-7-azabicyclo[2.2.1]heptane-7-carbonyl]-5-methoxy-3-methylimidazo [1,2-a]pyridin-2-yl]-1-(cyclopropylmethyl)pyrrolo [2,3-b]pyridin-6-yl]ethyl]-6,6-difluoro-3-azabicyclo[3.1.0]hexane-3-carboxamide], the IC50 turned out to be 0.0378 µM.

Consider `COc1cc(C(=O)N2[C@@H]3CCC[C@H]2[C@@H](N)C3)cc2nc(-c3cc4ccc(N(C(F)F)S(C)(=O)=O)nc4n3CC3CC3)c(C)n12` [Example 331, N-[2-[7-[(1R,5S,6S)-6-amino-8-azabicyclo[3.2.1]octane-8-carbonyl]-5-methoxy-3-methyl-imidazo [1,2-a]pyridin-2-yl]-1-(cyclopropylmethyl)pyrrolo [2,3-b]pyridin-6-yl]-N-(difluoromethyl) methanesulfonamide], for which the concentration for half-maximal inhibition (IC50) was 1.42 µM.

`CCc1ccc2cc(-c3nc4cc(C(=O)N5[C@H]6CC[C@@H]5[C@H](N)C6)cc(OC)n4c3C3CC3)n(CC3CC3)c2n1` [Example 578, [(1~{R},2~{R},4~{S})-2-amino-7-azabicyclo [2.2.1]heptan-7-yl]-[3-cyclopropyl-2-[1-(cyclopropylmethyl)-6-ethylpyrrolo[2,3-b]pyridin-2-yl]-5-methoxyimidazo [1,2-a]pyridin-7-yl]methanone]: the half-maximal inhibitory concentration (IC50) turned out to be 0.346 µM.

For the compound `CS(=O)(=O)N(c1ccc2cc(-c3nc4cc(C(=O)N5CC[C@@H](F)[C@@H](N)C5)ccn4c3C3CC3)n(CC3CC3)c2n1)C(F)F` [Example 394, ~{N}-[2-[7-[(3~{S},4~{R})-3-amino-4-fluoropiperidine-1-carbonyl]-3-cyclopropylimidazo[1,2-a]pyridin-2-yl]-1-(cyclopropylmethyl)pyrrolo [2,3-b]pyridin-6-yl]-~{N}-(difluoromethyl) methanesulfonamide], the half-maximal inhibitory concentration (IC50) stood at 1.07 µM.

Consider `CS(=O)(=O)N(c1ccc2cc(-c3nc4cc(C(=O)N5C[C@H]6CC[C@@H]5[C@@H]6N)ccn4c3C3CC3)n(CC3CC3)c2n1)C(F)F` [Example 396, N-[2-[7-[(1R,4R,7R)-7-amino-2-azabicyclo [2.2.1]heptane-2-carbonyl]-3-cyclopropyl-imidazo[1,2-a]pyridin-2-yl]-1-(cyclopropylmethyl)pyrrolo [2,3-b]pyridin-6-yl]-N-(difluoromethyl) methanesulfonamide], for which the 50% inhibitory concentration (IC50) came out at 0.194 µM.
